The results in this text go back to patent US10639298B2 (Biohaven Pharmaceutical Holding Company Ltd., priority 2015, dated 2020).

Where two headings read alike, the source gives them in different places.

A short description of this data set: Rat pharmacokinetic studies of prodrug and released riluzole (IV or oral). It is filed as in vivo, Sprague-Dawley rats. As to conditions: rat, plasma, fasted male Sprague Dawley rats; for clearance: read-out: Compound of the disclosure Cl (converted); for Vd: read-out: Compound of the disclosure Vss; for half-life: read-out: Compound of the disclosure t1/2 (converted). Here is the method:
Rat Pharmacokinetic Studies of the Compounds of the Disclosure:
Blood samples were collected at pre-determined time points including a 0 h time point and usually between 7 and 8 additional time points not exceeding a 24 h period.
Plasma samples were extracted and analyzed using the methods described in Plasma Sample Extraction and Analysis. All data are expressed as ng/mL of the free base. Samples that were below the limit of quantification (0.5 ng/mL) were not used in the calculation of averages.
Pharmacokinetic parameters were calculated from the time course of the plasmaconcentrations. Pharmacokinetic parameters were determined with Phoenix Winnonlin (v6.3) software using a non-compartmental model. The maximum plasma concentration (Cmax) and time to the maximum plasma concentration (Tmax) of the compound of the disclosure were observed from the data. The area under the concentration-time curve (AUC) of the compound of the disclosure was calculated using the trapezoidal formula with calculation to the last quantifiable data point, and to infinity if applicable. Plasma half-life (t½) was calculated from 0.693/slope of the terminal elimination phase. Mean residence time, MRT, was calculated by dividing the area under the moment curve (AUMC) by the AUC. Any samples below the limit of quantitation (0.5 ng/mL) were treated as zero for pharmacokinetic data analysis.
Plasma Sample Extraction and Analysis:
Analytical stock solutions (1.00 mg/mL of the free compound of the disclosure) were prepared in DMSO. Standards were prepared in diluted matrix containing 1 part 10% formic acid and 9 parts Sprague-Dawley rat plasma containing sodium heparin as the anticoagulant (pre-diluted with 1 part of 0.5M citric acid and 9 parts whole blood). Working solutions were prepared in 50:50 acetonitrile:water. Working solutions were then added to plasma to make calibration standards to final concentrations of 1000, 500, 100, 50, 10, 5, 1, and 0.5 ng/mL. Standards contained both the test article and riluzole. Standards were treated identically to the study samples.
Plasma samples were extracted via acetonitrile precipitation on a Tomtec Quadra 96-Model 320 liquid handling system in a 96-well plate format.

Setting [1] is: IV, prodrug dose 2.8 mg/Kg, read-out: Compound of the disclosure AUClast.

With `CCNCC(=O)N1CCC[C@@H]1C(=O)Nc1nc2ccc(OC(F)(F)F)cc2s1` [Example 52, (R)-1-N-ethylglycinyl-N-(6-(trifluoromethoxy)benzo [d]thiazol-2-yl) pyrrolidine-2-carboxamide], the AUC(0-t) under setting [1] is 3620 ng·h/mL. In addition, under “IV, prodrug dose 2.8 mg/Kg”, the clearance was 9 mL/min/kg, the Vd worked out at 3.55 L/kg and the half-life is 4.75 h.

With `CC(C)(CN)C(=O)N1CCC[C@H]1C(=O)Nc1nc2ccc(OC(F)(F)F)cc2s1` [Example 59, (S)-1-(3-amino-2,2-dimethylpropanoyl)-N-(6-(trifluoromethoxy)benzo[d]thiazol-2-yl)pyrrolidine-2-carboxamide], the AUC(0-t) under setting [1] was 2770 ng·h/mL. Besides, where the note is “IV, prodrug dose 2.8 mg/Kg”, the clearance is 10.7 mL/min/kg, the Vd was 5.11 L/kg and the half-life was 6.2 h.

With `NCC(=O)NC1(C(=O)Nc2nc3ccc(OC(F)(F)F)cc3s2)CCC1` [Example 82, 1-(2-aminoacetamido)-N-(6-(trifluoromethoxy)benzo[d]thiazol-2-yl)cyclobutane-1-carboxamide], under setting [1], the AUC(0-t) was 663 ng·h/mL. In addition, where the note is “IV, prodrug dose 2.8 mg/Kg”, the clearance is 71.3 mL/min/kg, the Vd is 4.14 L/kg and the half-life is 1.03 h.

`CNCC(=O)NC1(C(=O)Nc2nc3ccc(OC(F)(F)F)cc3s2)CCC1` [Example 83, 1-(2-(methylamino)acetamido)-N-(6-(trifluoromethoxy)benzo[d]thiazol-2-yl)cyclobutane-1-carboxamide]: where the note is “IV, prodrug dose 1.8 mg/Kg, read-out: Compound of the disclosure AUClast”, the AUC(0-t) stood at 1720 ng·h/mL. Further, under “IV, prodrug dose 1.8 mg/Kg”, the clearance is 11.3 mL/min/kg, the Vd was found to be 5.06 L/kg and the half-life was 5.56 h.

In the case of `CNCC(=O)NC(C)(C)C(=O)Nc1nc2ccc(OC(F)(F)F)cc2s1` [Example 111, 2-methyl-2-(2-(methylamino)acetamido)-N-(6-(trifluoromethoxy)benzo[d]thiazol-2-yl)propanamide], the AUC(0-t) under setting [1] was found to be 4650 ng·h/mL. In addition, for the setting “IV, prodrug dose 2.8 mg/Kg”, the clearance is 5.75 mL/min/kg, the Vd amounted to 3.19 L/kg and the half-life is 6.51 h.

In the case of `CC(C)NCC(=O)NC(C)(C)C(=O)Nc1nc2ccc(OC(F)(F)F)cc2s1` [Example 113, 2-(2-(isopropylamino)acetamido)-2-methyl-N-(6-(trifluoromethoxy)benzo[d]thiazol-2-yl)propanamide], the AUC(0-t) under setting [1] stood at 2760 ng·h/mL. For the same compound, where the note is “IV, prodrug dose 2.8 mg/Kg”, the clearance was 11.5 mL/min/kg, the Vd turned out to be 4.88 L/kg and the half-life is 5.45 h.

Turning to `CN(CC(=O)Nc1nc2ccc(OC(F)(F)F)cc2s1)C(=O)C(C)(C)CN` [Example 118, 3-Amino-N,2,2-trimethyl-N-(2-oxo-2-((6-(trifluoromethoxy)benzo[d]thiazol-2-yl)amino)ethyl)propanamide], under setting [1], the AUC(0-t) worked out at 2480 ng·h/mL. Besides, for the setting “IV, prodrug dose 2.8 mg/Kg”, the clearance was 18.8 mL/min/kg, the Vd stood at 3.35 L/kg and the half-life was 10.4 h.

As for `CN(CC(=O)Nc1nc2ccc(OC(F)(F)F)cc2s1)C(=O)C1(CN)CC1` [Example 119, 1-(aminomethyl)-N-methyl-N-(2-oxo-2-((6-(trifluoromethoxy)benzo[d]thiazol-2-yl)amino)ethyl)cyclopropane-1-carboxamide], the AUC(0-t) under setting [1] stood at 1720 ng·h/mL. Where the note is “IV, prodrug dose 2.8 mg/Kg”, the clearance is 27.2 mL/min/kg, the Vd was determined as 4.7 L/kg and the half-life was 9.3 h.

With `CN(CC(=O)Nc1nc2ccc(OC(F)(F)F)cc2s1)C(=O)C1(CN)CCCC1` [Example 120, 1-(aminomethyl)-N-methyl-N-(2-oxo-2-((6-(trifluoromethoxy)benzo[d]thiazol-2-yl)amino)ethyl)cyclopentane-1-carboxamide], the AUC(0-t) under setting [1] stood at 2460 ng·h/mL. Where the note is “IV, prodrug dose 2.8 mg/Kg”, the clearance was 19 mL/min/kg, the Vd stood at 3.63 L/kg and the half-life is 8.66 h.

As for `CN(CC(=O)Nc1nc2ccc(OC(F)(F)F)cc2s1)C(=O)C1(CN)CCCCC1` [Example 121, 1-(aminomethyl)-N-methyl-N-(2-oxo-2-((6-(trifluoromethoxy)benzo[d]thiazol-2-yl)amino)ethyl)cyclohexane-1-carboxamide], the AUC(0-t) under setting [1] is 1290 ng·h/mL. For the same compound, where the note is “IV, prodrug dose 2.8 mg/Kg”, the clearance is 36.3 mL/min/kg, the Vd was 6.15 L/kg and the half-life is 4.83 h.

As for `CNCC(=O)N(C)CC(=O)Nc1nc2ccc(OC(F)(F)F)cc2s1` [Example 122, N-methyl-2-(methylamino)-N-(2-oxo-2-((6-(trifluoromethoxy)benzo[d]thiazol-2-yl)amino)ethyl)acetamide], the AUC(0-t) under setting [1] is 219 ng·h/mL. Further, for the setting “IV, prodrug dose 2.8 mg/Kg”, the clearance was 66.3 mL/min/kg, the Vd was determined as 0.861 L/kg and the half-life was 0.28 h.

Take `CCNCC(=O)N(C)CC(=O)Nc1nc2ccc(OC(F)(F)F)cc2s1` [Example 123, 2-(ethylamino)-N-methyl-N-(2-oxo-2-((6-(trifluoromethoxy)benzo[d]thiazol-2-yl)amino)ethyl)acetamide]: the AUC(0-t) under setting [1] is 787 ng·h/mL. For the setting “IV, prodrug dose 2.8 mg/Kg”, the clearance was 59 mL/min/kg, the Vd was 2.04 L/kg and the half-life was 0.68 h.

In the case of `CC(C)NCC(=O)N(C)CC(=O)Nc1nc2ccc(OC(F)(F)F)cc2s1` [Example 124, 2-(isopropylamino)-N-methyl-N-(2-oxo-2-((6-(trifluoromethoxy)benzo[d]thiazol-2-yl)amino)ethyl)acetamide], the AUC(0-t) under setting [1] came to 580 ng·h/mL. Besides, under “IV, prodrug dose 2.8 mg/Kg”, the clearance is 81.2 mL/min/kg, the Vd was determined as 2.67 L/kg and the half-life was 0.63 h.

Turning to `NCC1(C(=O)N2CCC[C@@H]2C(=O)Nc2nc3ccc(OC(F)(F)F)cc3s2)CCCCC1` [Example 173, (R)-1-(1-(aminomethyl)cyclohexane-1-carbonyl)-N-(6-(trifluoromethoxy)benzo[d]thiazol-2-yl)pyrrolidine-2-carboxamide], the AUC(0-t) under setting [1] turned out to be 1440 ng·h/mL. Besides, under “IV, prodrug dose 2.8 mg/Kg”, the clearance was 22.3 mL/min/kg, the Vd is 9.66 L/kg and the half-life was 6.7 h.

For the compound `CN(CC(=O)Nc1nc2ccc(OC(F)(F)F)cc2s1)C(=O)CNC1CNC1` [Example 212, 2-[(Azetidin-3-yl)amino]-N-methyl-N-({[6-(trifluoromethoxy)-1,3-benzothiazol-2-yl]carbamoyl}methyl)acetamide], the AUC(0-t) (IV, prodrug dose 1.4 mg/Kg, read-out: Compound of the disclosure AUClast) worked out at 218 ng·h/mL. In addition, where the note is “IV, prodrug dose 1.4 mg/Kg”, the clearance was 104 mL/min/kg, the Vd came to 6.21 L/kg and the half-life was 2.43 h.

In general, Cmax refers to the maximum level reached in the sampled fluid or tissue. In general, Tmax refers to the time from dosing to the highest level. On to `CN(CC(=O)Nc1nc2ccc(OC(F)(F)F)cc2s1)C(=O)CNC1CCNCC1` [Example 216, N-Bethyl-2-[(piperidin-4-yl)amino]-N-({[6-(trifluoromethoxy)-1,3-benzothiazol-2-yl]carbamoyl}methyl)acetamide], for which the AUC(0-t) under setting [1] worked out at 1910 ng·h/mL. Where the note is “IV, prodrug dose 2.8 mg/Kg”, the clearance is 23 mL/min/kg, the Vd amounted to 2.53 L/kg and the half-life was 3.98 h. Moreover, where the note is “PO 5 mg/kg”, the Cmax came out at 2.96 ng/mL and the Tmax was 2.17 h. Besides, where the note is “PO 5 mg/kg, read-out: Prodrug AUClast (Mean)”, the AUC(0-t) stood at 16.6 ng·h/mL.

`CN(CC(=O)Nc1nc2ccc(OC(F)(F)F)cc2s1)C(=O)CNC1COC1` [Example 234, N-Methyl-2-[(oxetan-3-yl)amino]-N-({[6-(trifluoromethoxy)-1,3-benzothiazol-2-yl]carbamoyl}methyl)acetamide]: the AUC(0-t) under setting [1] came out at 3240 ng·h/mL. Under “IV, prodrug dose 2.8 mg/Kg”, the clearance is 14.2 mL/min/kg, the Vd worked out at 1.1 L/kg and the half-life is 1.5 h.
